Measurements published in publication PMC7215935, “GM1 Oligosaccharide Crosses the Human Blood–Brain Barrier In Vitro by a Paracellular Route” (International Journal of Molecular Sciences, 2020).
Where two headings read alike, the source gives them in different places.

Legend:
[1] = Direct transport (apical to basolateral, A → B) across the hBLEC monolayer: Pe and Papp; format: in vitro ADME, human; conditions: human, pH 7.4, 50 μM
Protocol: (§1) Prior to the experiments, in order to verify the hBLECs’ monolayer integrity and stability, the permeability parameters were verified as previously reported. Briefly, 1.5 mL Ringer–Hepes solution (RH) (150 mM NaCl, 5.2 mM KCl, 2.2 mM CaCl2, 0.2 mM MgCl26H2O, 6 mM NaHCO3, 5 mM HEPES, pH: 7.4) was added to empty wells of a 12-well plate. Filter insert containing confluent monolayers of hBLECs or not (control) were subsequently placed in the 12-well plate, filled with 0.5 mL RH buffer containing the fluorescent integrity marker LY (50 μM), and then placed on an orbital shaker (150 rpm, Heidolph Titramax 100) at 37 °C in a humidify atmosphere of 95% air/5% CO2. Every 20 min for 1 h, filter inserts were withdrawn from the receiver compartment and placed in the next one. To verify the quantity of LY, at the end of the experiments, aliquots from the donor solution were taken at the end of the experiments and the fluorescence was quantified using a quantification curve of LY as referee. At least three inserts with cells and three without cells were tested in each permeability measurement. The fluorescence was measured using a luminescence spectrometer (LS 50B, Perkin Elmer), using the following excitation/emission wavelength (nm) settings: 432/538. Pe parameters were calculated according to the formulas shown in the Supplementary Information (Equations (7)–(10)). In parallel, as positive control for breakdown of hBLECs, D-mannitol, was used at a concentration of 1.4 M. At this concentration, mannitol induces an osmotic shock, and thus an increase in paracellular permeability.
(§2) Transport experiments were carried out by adding tritium-labeled GM1 or OligoGM1 (1 × 10^6 dpm) to cold GM1 or OligoGM1, respectively, at different concentrations, as specified below.
(§3) To identify and quantify the GM1 or OligoGM1 molecules in every transport experiment, aliquots from apical A (5 μL) and basolateral B (200 μL) compartments were collected at indicated time points and combined with 5 mL of ULTIMA GOLD liquid (PerkinElmer), shaken, and counted for 20 min by liquid scintillation analyzer (TRI-CARB 2100TR, Packard). Resulting radioactivity measures were used to estimate the quantity of the molecules. Experiments were performed on an agitation plate at 37 °C (150 rpm, Heidolph Titramax 100) in a humidify atmosphere of 95% air/5% CO2. At least three inserts with cells were tested in each transport experiment for each condition.
(§4) To examine flux from apical to basolateral compartments (A → B), 1.5 mL RH buffer was added to empty wells of a 12-well plate. Following this, the hBLEC filter was placed in the same 12-well plate and filled with 0.5 mL RH buffer containing 1 × 10^6 dpm of tritiated [^3H]GM1 or [^3H]OligoGM1 plus 50 μM of cold GM1 or OligoGM1 (Figure S3b).
(§5) To establish the time dependence of the transport experiments, hBLEC inserts filled with OligoGM1 were transferred into a new receiver well plate filled with fresh RH buffer every 20 min up to 240 min. The hBLECs’ properties, integrity, and stability were maintained up to 240 min in the transport experiments with RH buffer in the upper and basolateral side (see [28] and Figure S4).
(§6) To establish the dose dependence in the transport experiments, 1 × 10^6 dpm of tritiated [^3H]OligoGM1 plus 5, 10, 50, 100, and 300 μM OligoGM1 solutions were prepared and employed as described above. The hBLECs inserts were transferred into a new RH-filled receiver well plate every 20 min up to 60 min. […]
(§7) To evaluate the possible active transport involvement, the transport of OligoGM1 from apical to basolateral (A → B) compartments was performed at 4 °C, with the aim of inhibiting the active transport mechanism at low temperature. […]

[2] = system: human brain-like endothelial cells (hBLECs); experiment: as above; format: in vitro ADME
Protocol: as §1, §2, §3, §4, §5, §6, §7

Structure (SMILES): CC(=O)NC1C(O)CC(OC2C(O)C(OC3C(CO)OC(O)C(O)C3O)OC(CO)C2OC2OC(CO)C(O)C(OC3OC(CO)C(O)C(O)C3O)C2NC(C)=O)(C(=O)O)OC1C(O)C(O)CO (stereo not drawn) [OligoGM1, β-Gal-(1-3)-β-GalNAc-(1-4)-[α-Neu5Ac-(2-3)]-β-Gal-(1-4)-β-Glc]
- Papp A→B at 60 min, 50 μM ([1]; 60 min, 4 °C (Figure 6d), read-out: Papp A>B at 4 °C): 6.7 ± 0.17 ×10⁻⁶ cm/s
- Papp A→B at 60 min, 50 μM ([1]; 60 min, 37 °C, temperature experiment (Figure 6d), read-out: Papp A>B at 37 °C): 8.8 ± 0.24 ×10⁻⁶ cm/s
- Papp A→B at 60 min, 50 μM ([1]; after 60 min, hBLEC monolayer, read-out: endothelial permeability Pe (A → B) (converted)): 9.67 ×10⁻⁶ cm/s
- influence of BSA on rate of A → B transport ([2]; 50 μM, 0.1% (w/v) BSA in apical solution, 60 min): No difference in the rate of transport
- slope of linear regression: % of administered nmol in receiving compartment vs time (min) ([2]; 50 μM, 20-240 min, y = slope × x): 0.1097
- crossing rate / Pe of OligoGM1 relative to GM1 ([2]; 50 μM, hBLECs): 20 fold
- time dependence of A → B transport ([2]; 50 μM, up to 240 min): linear time dependence
- slope of linear regression: nmol in receiving compartment vs concentration (μM) ([2]; 5-300 μM, 60 min, y = slope × x): 0.04352
- concentration dependence of A → B transport ([2]; 5 to 300 μM, 60 min): proportional increase
